From US9233995B2, “Quinazoline derivatives and quinazoline complex protein kinase inhibitor for inhibiting multiplication of tumor cells and preparation method thereof” (INSTITUTE OF CHEMISTRY, CHINESE ACADEMY OF SCIENCES, priority 2010, dated 2016)
Read-outs that look alike come from different tables or passages of the source.

How the values were obtained:
[1] = molecular target: T1, EGFR (Epidermal Growth Factor Receptor) (Homo sapiens, UniProt P00533); assay: Enzyme-linked immunosorbent assay (ELISA), kinase inhibitory activity (phosphorylation of PTP1B(Tyr66) biotinylated peptide substrate); type: biochemical; conditions: average of two independent parallel experiments
T1 construct: purchased CST
T1 sequence (P00533 25-1210): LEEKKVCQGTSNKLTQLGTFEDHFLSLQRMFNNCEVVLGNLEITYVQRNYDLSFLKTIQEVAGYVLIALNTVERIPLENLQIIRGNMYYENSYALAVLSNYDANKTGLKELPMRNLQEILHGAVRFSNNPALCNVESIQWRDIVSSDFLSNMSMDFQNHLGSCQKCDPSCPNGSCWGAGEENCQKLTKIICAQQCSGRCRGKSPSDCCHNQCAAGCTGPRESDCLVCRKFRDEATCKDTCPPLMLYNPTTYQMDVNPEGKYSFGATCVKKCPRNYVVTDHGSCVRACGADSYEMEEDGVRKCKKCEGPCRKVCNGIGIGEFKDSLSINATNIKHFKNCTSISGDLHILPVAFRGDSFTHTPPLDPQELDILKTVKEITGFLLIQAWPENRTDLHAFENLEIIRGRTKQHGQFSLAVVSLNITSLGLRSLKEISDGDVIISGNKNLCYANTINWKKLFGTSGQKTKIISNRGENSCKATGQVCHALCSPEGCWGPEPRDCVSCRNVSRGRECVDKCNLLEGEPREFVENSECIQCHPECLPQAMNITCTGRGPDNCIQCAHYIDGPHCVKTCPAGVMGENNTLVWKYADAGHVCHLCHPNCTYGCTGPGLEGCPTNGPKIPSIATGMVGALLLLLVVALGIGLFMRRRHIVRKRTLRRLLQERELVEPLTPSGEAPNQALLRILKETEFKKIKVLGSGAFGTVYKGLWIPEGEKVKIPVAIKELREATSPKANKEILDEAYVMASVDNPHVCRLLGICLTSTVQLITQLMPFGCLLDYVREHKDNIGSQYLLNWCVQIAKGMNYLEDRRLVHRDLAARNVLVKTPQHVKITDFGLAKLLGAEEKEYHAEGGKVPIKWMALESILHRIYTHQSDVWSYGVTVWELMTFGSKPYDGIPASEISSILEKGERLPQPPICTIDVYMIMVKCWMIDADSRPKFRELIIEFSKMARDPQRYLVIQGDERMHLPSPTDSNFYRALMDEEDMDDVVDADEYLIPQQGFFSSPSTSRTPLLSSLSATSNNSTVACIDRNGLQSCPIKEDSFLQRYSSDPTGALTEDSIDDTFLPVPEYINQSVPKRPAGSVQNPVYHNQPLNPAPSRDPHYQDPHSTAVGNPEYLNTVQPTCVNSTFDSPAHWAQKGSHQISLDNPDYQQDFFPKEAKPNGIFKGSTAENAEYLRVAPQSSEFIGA
Excerpt: Protein kinase assay kit: PTP1B(Tyr66) Biotinylated Peptide from CST company is used as a substrate of kinase EGFR (Epidermal Growth Factor Receptor).

[2] = test system: Human breast cancer cell line (drug-resistant) MCF-7/A; assay: Cytotoxicity experiment, SRB method, tumor cell proliferation; type: cell-based; conditions: 48 h, read-out: IC50 (umol/L) Breast cancer cell (drug-resistant) MCF-7/A
Method: (§1) Human breast cancer cell line (drug-resistant) MCF-7/A, human breast cancer cell line (sensitive) MCF-7/S, prostate cancer cell PC-3, keratinocyte Colo-16, human non-small cell lung cancer cell line A549 and etc. are cultured in RPMI1640 medium (Invitrogen, USA) containing 10 wt % fetal bovine serum (FBS, Hyclone, USA), and epidermal growth factor (EGF) at a concentration of 100 ng/ml is added to stimulate growth. After 2-3 days, cells in logarithmic growth phase are collected, and inoculated at 96 well plates (6500 cells/well/100 ul, RPMI1640 containing 100 ng/mL EGF) for 24 h, and then compound at gradient concentrations (200, 100, 50, 25, 12.5, 6.25, 1 μM/L) are added. The same volume of RPMI1640 containing 1 wt % of dimethyl sulfoxide (DMSO) is used as control group of the experiment; the blank group is only culture medium without cell. Three parallel wells are set up for each concentration group. After incubation is continued for 48 h, the cell survival rate is measured by SRB method. Results are shown in Table 2 and Table 3, respectively.
(§2) Wherein, for experiment on compound cytotoxicity assay by sulforhodamine B (SRB) method: Cells in the logarithmic growth phase are collected and inoculated at 96-well plates (6500 cells/well/100 ul, RPMI1640 containing 100 ng/ml of EGF). After incubation for 24 h, compounds at gradient concentrations (200, 100, 50, 25, 12.5, 6.25, 1 (μM/L)) are added. The same volume of RPMI1640 containing 100 ng/ml of EGF is used as control group of the experiment; the blank group is only culture medium without cell. Three parallel wells are set up for each concentration group. After incubation is continued for 48 h, the cell survival rate is measured by SRB method. 50 μl 10% trichloroacetic acid (TCA) pre-cooled (4° C.) is added to each well, it is fixed for 1 hour at 4° C., washed with water for five times, and completely dried, and then 100 μl of SRB solution (Sigma, USA) at concentration of 0.4% by weight is added, and staining is performed at 37° C. in the dark for 30 min. Wash with acetic acid at a concentration of 1% by weight for 4-5 times, dry in the air, add 200 μl of Tris solution (10 mM, pH 10.5), after sufficiently dissolved, the absorbance (absorption wavelength is 570 nm) is measured in microplate reader.
(§3) The growth inhibition rate (IR) is calculated according to the following formula: IR (%)=[1−(experiment group A value−blank group A value)/(control group A value−blank group A value)]×100%, and the IC50 value is calculated using Origin 6.0 software.

[3] = test system: human breast cancer cell line (sensitive) MCF-7/S; assay: as above; type: cell-based; conditions: 48 h, read-out: IC50 (umol/L) Breast cancer cell (sensitive) MCF-7/S
Method: as §1, §2, §3

[4] = test system: human non-small cell lung cancer cell line A549; assay: as above; type: cell-based; conditions: A549, 48 h, read-out: IC50 (μmol/L) Non-small cell lung cancer cell A549
Method: as §1, §2, §3

[5] = test system: keratinocyte Colo-16; assay: as above; type: cell-based; conditions: Colo-16, 48 h, SRB, read-out: IC50 (μmol/L) Keratinocyte Colo-16
Method: as §1, §2, §3

[6] = test system: prostate cancer cell PC-3; assay: as above; type: cell-based; conditions: PC-3, 48 h, SRB; read-out: IC50 (μmol/L) Prostate cancer cell PC-3
Method: as §1, §2, §3

[7] = test system: human breast cancer cell line (sensitive) MCF-7/S + EGF; assay: Cytotoxicity experiment under the condition of additional EGF, SRB method; type: cell-based; conditions: MCF-7/S with additional EGF 100 ng/ml, 48 h, SRB, read-out: IC50 (umol/L) Breast cancer cell (sensitive) MCF-7/S + EGF
Method: Human breast cancer cell line (sensitive) MCF-7/S and human non-small cell lung cancer cell line A549 are cultured in HAM′S/F-12 medium (HyClone, USA) containing 10 wt % fetal bovine serum (FBS, Hyclone, USA), and 100 ng/ml epidermal growth factor (EGF, Sigma, USA) is added to this medium. Cells described above were purchased from Cell Resource Center, Shanghai Institute for Biological Science, CAS, they are placed in a CO2 incubator and used for the experiment 3-5 days later.
as §2, §3

[8] = Stability (physicochemical properties, Table 1); conditions: for Stability (photostability): light
[9] = Solubility (physicochemical properties, Table 1); conditions: room temperature, atmospheric pressure

Which results are given for `COc1cc2ncnc(Nc3ccc(F)c(Cl)c3)c2cc1OCC[N]1CC[NH][Ru+]1([Cl])[c]1cc(C(C)C)ccc1C.F[P-](F)(F)(F)(F)F` (stereo not drawn) [ZW2001]?
IC50 [1]: 0.081 µM; IC50 [2]: > 100 µmol/L; IC50 [3]: > 100 µmol/L; IC50 [4]: > 100 µmol/L; IC50 [5]: 42.8 ± 2.46 µmol/L; IC50 [6]: > 100 µmol/L; IC50 [7]: 56.1 ± 2.66 µmol/L; Stability (in air) [8]: Stable in air,; Stability (photostability) [8]: photostable; Solubility in DMSO [9]: Highly soluble in DMSO; Solubility in methanol and ethanol [9]: soluble in water, soluble in methanol; Solubility in water [9]: slightly

For `COc1cc2ncnc(Nc3ccc(F)c(Cl)c3)c2cc1OCCCNCCN` [ZW1002, 6-(3-(2-aminoethylamino)propoxy)-4-(3-Chloro-4-fluoro-phenylamino)-7-methoxy quinazoline], which IC50 [1] is on record?
Its IC50 is 0.0072 µM.

What about the IC50 ([2]; Homo sapiens, MCF7a) of the same compound?
Its IC50 is greater than 100 µmol/L.

And the IC50 ([3]; Homo sapiens, MCF7S)?
The IC50 was 16.4 ± 0.62 µmol/L.

And the IC50 ([4]; Homo sapiens)?
Its IC50 is 57.4 ± 1.98 µmol/L.

What about the IC50 ([5]; Keratinocyte) of the same compound?
The IC50 was 14.5 ± 0.37 µmol/L.

What about the IC50 [6] of the same compound?
Its IC50 is 13.6 ± 0.85 µmol/L.

And the IC50 ([7]; Homo sapiens, MCF7S)?
Its IC50 is 15.9 ± 1.15 µmol/L.

And the “Stability (in air)” value [8]?
The value was “Stable in air,”.

What about the “Stability (photostability)” value [8] of the same compound?
The value was “photostable”.

And the “Solubility in DMSO” value [9]?
Its value is “Highly soluble in DMSO”.

What about the “Solubility in methanol and ethanol” value [9] of the same compound?
The value was “soluble in water, soluble in methanol”.

What about the Solubility in water [9] of the same compound?
The Solubility in water was “slightly”.

With `COc1cc2ncnc(Nc3ccc(F)c(Cl)c3)c2cc1OCC[N]1CC[NH][Ru+]1([Cl])[c]1cccc(-c2ccccc2)c1.F[P-](F)(F)(F)(F)F` (stereo not drawn) [ZW2003] as the compound, how does the IC50 [1] read?
The IC50 was 0.126 µM.

And the IC50 [2]?
The IC50 was greater than 100 µmol/L.

What about the IC50 [3] of the same compound?
Its IC50 is 79.1 ± 11.6 µmol/L.

And the IC50 [4]?
The IC50 was greater than 100 µmol/L.

And the IC50 [5]?
Its IC50 is 54.2 ± 4.98 µmol/L.

What about the IC50 [6] of the same compound?
The IC50 was 81.3 ± 6.94 µmol/L.

What about the IC50 [7] of the same compound?
Its IC50 is 28.7 ± 8.75 µmol/L.

What about the “Stability (in air)” value [8] of the same compound?
The value was “Stable in air,”.

What about the “Stability (photostability)” value [8] of the same compound?
The value was “photostable”.

And the “Solubility in DMSO” value [9]?
Its value is “Highly soluble in DMSO”.

What about the “Solubility in methanol and ethanol” value [9] of the same compound?
Its value is “soluble in water, soluble in methanol”.

What about the Solubility in water [9] of the same compound?
The Solubility in water was “slightly”.
